Measurements reported in patent publication US10694724B2, “Transgenic mouse for the assessment of thyroid hormone (TH) action” (MAGYAR TUDOMÁNYOS AKADÉMIA KÍSÉRLETI ORVOSTUDOMÁNYI KUTATÓ …, priority 2014, dated 2020).
“Also recorded” adds a separate entry of the source. Values belong to the molecule of their own block, whether it stands above or below them.

Tests used:
[1] = system: thyroid hormone (TH) action (3xTRE-TK driven Luciferase reporter); assay: Luciferase activity (luciferase assay) in tissues of THAIM line #18 mice; assay type: in vivo, mouse
Experimental: Characterization of the #4, 18 and 23 lines identified thyroid hormone (5 ug of T4/day/mouse for 3 days) induced induction of Luciferase expression in various tissues of homozygote males.
Basal and thyroid hormone induced values and fold changes (induced/basal) of Luciferase activities in tissues of sacrificed animals (Mean±SEM, n=4). P values oft test (basal vs. induced) are provided, * represents statistical significance. (A, B, C) T4 treatment (5 ug/mouse/day for 3 days; i.p.) in mouse lines #4, 18, and 23. Basal activity levels in #18 are higher than other two lines. […] All experiments were performed on homozygote males.
(FIG. 4). Unilateral denervation of sympathetic nerves innervating the iBAT has been performed as described in (32). Measurement of the activity of type 2 deiodinase was performed according to the American Thyroid Association Guide to investigating thyroid hormone economy and action in rodent and cell models (33)). THAIM #4 mice underwent unilateral denervation of sympathetic nerves innervating the BAT. Luciferase activity assay was performed using our established protocol (34) modified for tissue samples. […] This increase was abolished by denervation but TH action was maintained at room temperature (intact vs. denervated). (A). In the denervated samples, this was paralleled by abolished response of D2 activity to cold and maintenance of the basal D2 activity in the denervated lobe at room temperature (B).

[2] = system: thyroid hormone (TH) action (3xTRE-TK driven Luciferase reporter); assay: Luciferase activity (luciferase assay) in tissues of THAIM line #23 mice; assay type: in vivo, mouse; settings: for Fold (mean ± SEM), induced/basal Luciferase activity / induced Luciferase activity: line #23, T4 5 ug/mouse/day for 3 days i.p.
Experimental: (§1) (A, B, C) T4 treatment (5 ug/mouse/day for 3 days; i.p.) in mouse lines #4, 18, and 23. […] All experiments were performed on homozygote males.
(§2) Unilateral denervation of sympathetic nerves innervating the iBAT has been performed as described in (32). Measurement of the activity of type 2 deiodinase was performed according to the American Thyroid Association Guide to investigating thyroid hormone economy and action in rodent and cell models (33)). THAIM #4 mice underwent unilateral denervation of sympathetic nerves innervating the BAT. Luciferase activity assay was performed using our established protocol (34) modified for tissue samples.

[3] = system: thyroid hormone (TH) action (3xTRE-TK driven Luciferase reporter); assay: Luciferase activity (luciferase assay) in tissues of THAIM line #4 mice; assay type: in vivo, mouse; settings: for Fold (mean ± SEM), induced/basal Luciferase activity / induced Luciferase activity: line #4, T4 5 ug/mouse/day for 3 days i.p.
Experimental: as §1, §2

[4] = system: luciferase mRNA as a readout of TH action; assay: Luciferase mRNA by TaqMan qPCR in the pituitary of line #23; assay type: in vivo, mouse; settings: TaqMan assay
Experimental: Expression was assessed with TaqMan assay, Luciferase expression level was denominated with GAPDH expression used as housekeeping gene. Mean±SEM (n=5) *** p<0.0001 by t test.
We also studied whether detection of luciferase mRNA can be used to detect as a readout of TH action in the generated transgenic model. […] TaqMan qPCR was performed on a ViiA 7 Real-Time PCR System (Life Technologies) according to the instructions of the manufacturer. In short, reverse transcription was performed with High Capacity cDNA Reverse Transcriptase Kit (Applied Biosystems by Life Technologies) and concentration of the cDNA was determined using the Qubit 2.0 Fluorometer with the Qubit ssDNA Assay Kit (Life Technologies). A custom Luciferase coding probe was used along with a commercially available probe for Glyceraldehyde-3-phosphate dehydrogenase (GAPDH), later used as housekeeping gene.

[5] = system: TH action in live animals (Luciferase reporter); assay: In vivo bioluminescence imaging of Luciferase in live line #4 mice; parameters: species or system mouse; settings: 1 μg/g BW T3 i.p., luciferin 24 h later
Experimental: Mean±SEM (n=4) ** p<0.01 **p<0.0001 by t test.
After 15 min, mice were anesthetized with ketamine followed by detection with […] In vivo Imaging System (PerkinElmer Waltham, Mass., USA).

[6] = system: thyroid hormone receptor isoform specific action (TRβ dominant liver, TRα dominant heart; Luciferase reporter); assay: Testing TR isoform specific agonists: Luciferase activity in liver and heart of line #4 with decreased endogenous thyroid hormone; assay type: in vivo, mouse
Experimental: FIG. 7. The transgenic mouse model is capable to detect thyroid hormone receptor isoform specific T3 actions. […] Mean±SEM (n=5) ** p<0.01 by t test.
We decreased the endogenous thyroid hormone levels in line #4 by administering methimazole and perchlorate (0.1% methimazole, 0.5% perchlorate) in the drinking water followed by the i.p. injection of 1.53 nM/g BW of GC-24, a TRβ specific agonist (35). Luciferase activity assay was performed using our established protocol (34) modified for tissue samples, that included treatment of mouse tissue with liquid nitrogen, followed by sonication. In vivo Luciferase imaging has been performed on an IVIS Lumina II In vivo Imaging System (PerkinElmer Waltham, Mass., USA) according to the instructions of the manufacturer.

[7] = system: THAIC construct in HEK293 cells with mouse TRα; assay: Luciferase promoter assay in HEK293 cells transfected with THAIC and mouse TRα plasmid; assay type: cell-based, human; settings: HEK293 transfected with THAIC, SB100 and mouse TRα plasmid; 100 nM T3
Experimental: The THAIC construct was transfected to the human HEK293 cells along with a pCMV(CAT)T7-SB100 Sleeping Beauty transposon expressing vector and a mouse TRα encoding plasmid. Transfection and cell culturing of HEK293 cells was performed according to our established protocol (36). (FIG. 10)
(B) We also used zeocin-assisted selection and obtained cultures stably expressing Luciferase and generated the HEK293-THAIC cell line stably expressing the TH action indicator construct of the THAM model. The reporter of the cell line is responsive to TH in a TR dependent manner.

[8] = line #18, Cerebellum, T4 5 ug/mouse/day for 3 days i.p.
[9] = line #18, Cortex, T4 5 ug/mouse/day for 3 days i.p.
[10] = line #18, HC, T4 5 ug/mouse/day for 3 days i.p.
[11] = line #18, HT, T4 5 ug/mouse/day for 3 days i.p.
[12] = line #18, MBH, T4 5 ug/mouse/day for 3 days i.p.
[13] = line #18, Pit, T4 5 ug/mouse/day for 3 days i.p.
[14] = Mandibular salivatory gland (MSG)

- Luciferase activity (basal and induced) ([1]; line #18, Liver (cell also covers Heart, iBAT, Bone, Muscle, MSG, Thyroid, Testicle, Intestine), T4 5 ug/mouse/day for 3 days i.p.): no expression
- response of Luciferase expression in the pituitary ([1]; line #18 homozygote males, 5 ug of T4/day/mouse for 3 days): intense response
- response of Luciferase expression in the pituitary and hypothalamus ([2]; line #23 homozygote males, 5 ug of T4/day/mouse for 3 days): intense response
- induction of Luciferase expression in the BAT ([3]; line #4 homozygote males, 5 ug of T4/day/mouse for 3 days): striking response
Structure (SMILES): N[C@@H](Cc1cc(I)c(Oc2cc(I)c(O)c(I)c2)c(I)c1)C(=O)O [T4, thyroxine]
- Fold (mean ± SEM), induced/basal Luciferase activity [1, 8]: 1.8 ± 0.31 Fold
- induced Luciferase activity [1, 8]: 0.063 RLU/mg protein
- Fold (mean ± SEM), induced/basal Luciferase activity [1, 9]: 1.9 ± 1.18 Fold
- induced Luciferase activity [1, 9]: 2.586 RLU/mg protein
- Fold (mean ± SEM), induced/basal Luciferase activity [1, 10]: 2.1 ± 0.25 Fold
- induced Luciferase activity [1, 10]: 3.756 RLU/mg protein
- Fold (mean ± SEM), induced/basal Luciferase activity [1, 11]: 2.8 ± 0.35 Fold
- induced Luciferase activity [1, 11]: 1.589 RLU/mg protein
- Fold (mean ± SEM), induced/basal Luciferase activity [1, 12]: 2.2 ± 0.25 Fold
- induced Luciferase activity [1, 12]: 0.602 RLU/mg protein
- Fold (mean ± SEM), induced/basal Luciferase activity [1, 13]: 8.2 ± 0.36 Fold
- induced Luciferase activity [1, 13]: 0.540 RLU/mg protein
- Fold (mean ± SEM), induced/basal Luciferase activity ([2]; Bone): 0.9 ± 0.56 Fold
- induced Luciferase activity ([2]; Bone): 0.011 RLU/mg protein
- Fold (mean ± SEM), induced/basal Luciferase activity ([2]; CER): 1.9 ± 0.28 Fold
- induced Luciferase activity ([2]; CER): 0.023 RLU/mg protein
- Fold (mean ± SEM), induced/basal Luciferase activity ([2]; CTX): 1.8 ± 0.21 Fold
- induced Luciferase activity ([2]; CTX): 0.065 RLU/mg protein
- Fold (mean ± SEM), induced/basal Luciferase activity ([2]; HC): 1.1 ± 0.32 Fold
- induced Luciferase activity ([2]; HC): 0.040 RLU/mg protein
- Fold (mean ± SEM), induced/basal Luciferase activity ([2]; HT): 2.7 ± 1.35 Fold
- induced Luciferase activity ([2]; HT): 0.144 RLU/mg protein
- Fold (mean ± SEM), induced/basal Luciferase activity ([2]; Heart): 1.0 ± 0.47 Fold
- induced Luciferase activity ([2]; Heart): 0.003 RLU/mg protein
- Fold (mean ± SEM), induced/basal Luciferase activity ([2]; Liver): 1.7 ± 0.19 Fold
- induced Luciferase activity ([2]; Liver): 0.004 RLU/mg protein
- Fold (mean ± SEM), induced/basal Luciferase activity ([2]; MBH): 1.7 ± 0.29 Fold
- induced Luciferase activity ([2]; MBH): 0.240 RLU/mg protein
- Fold (mean ± SEM), induced/basal Luciferase activity ([2]; Muscle): 0.7 ± 0.18 Fold
- induced Luciferase activity ([2]; Muscle): 0.003 RLU/mg protein
- Fold (mean ± SEM), induced/basal Luciferase activity ([2]; Pit): 8.8 ± 0.62 Fold
- induced Luciferase activity ([2]; Pit): 16.926 RLU/mg protein
- Fold (mean ± SEM), induced/basal Luciferase activity ([2]; iBAT): 7.2 ± 1.54 Fold
- induced Luciferase activity ([2]; iBAT): 0.038 RLU/mg protein
- Fold (mean ± SEM), induced/basal Luciferase activity ([3]; Bone): 2.2 ± 0.18 Fold
- induced Luciferase activity ([3]; Bone): 0.066 RLU/mg protein
- Fold (mean ± SEM), induced/basal Luciferase activity ([3]; Cerebellum (CER)): 2.3 ± 0.41 Fold
- induced Luciferase activity ([3]; Cerebellum (CER)): 2.162 RLU/mg protein
- Fold (mean ± SEM), induced/basal Luciferase activity ([3]; Cortex (CTX)): 1.9 ± 0.30 Fold
- induced Luciferase activity ([3]; Cortex (CTX)): 0.359 RLU/mg protein
- Fold (mean ± SEM), induced/basal Luciferase activity ([3]; Heart): 8.5 ± 0.31 Fold
- induced Luciferase activity ([3]; Heart): 0.030 RLU/mg protein
- Fold (mean ± SEM), induced/basal Luciferase activity ([3]; Hippocampus (HC)): 1.9 ± 0.03 Fold
- induced Luciferase activity ([3]; Hippocampus (HC)): 0.116 RLU/mg protein
- Fold (mean ± SEM), induced/basal Luciferase activity ([3]; Hypothalamus (HT)): 1.3 ± 0.08 Fold
- induced Luciferase activity ([3]; Hypothalamus (HT)): 0.488 RLU/mg protein
- Fold (mean ± SEM), induced/basal Luciferase activity ([3]; Intestine): 2.1 ± 0.30 Fold
- induced Luciferase activity ([3]; Intestine): 9.480 RLU/mg protein
- Fold (mean ± SEM), induced/basal Luciferase activity ([3]; Liver): 1.9 ± 0.14 Fold
- induced Luciferase activity ([3]; Liver): 0.005 RLU/mg protein
- Fold (mean ± SEM), induced/basal Luciferase activity [3, 14]: 7.6 ± 2.60 Fold
- induced Luciferase activity [3, 14]: 0.399 RLU/mg protein
- Fold (mean ± SEM), induced/basal Luciferase activity ([3]; Mediobasal Hypothalamus (MBH)): 1.8 ± 0.20 Fold
- induced Luciferase activity ([3]; Mediobasal Hypothalamus (MBH)): 0.368 RLU/mg protein
- Fold (mean ± SEM), induced/basal Luciferase activity ([3]; Muscle): 11.2 ± 5.7 Fold
- induced Luciferase activity ([3]; Muscle): 0.276 RLU/mg protein
- Fold (mean ± SEM), induced/basal Luciferase activity ([3]; Pituitary (Pit)): 2.3 ± 0.16 Fold
- induced Luciferase activity ([3]; Pituitary (Pit)): 0.791 RLU/mg protein
- Fold (mean ± SEM), induced/basal Luciferase activity ([3]; Skin): 4.0 ± 0.76 Fold
- induced Luciferase activity ([3]; Skin): 2.798 RLU/mg protein
- Fold (mean ± SEM), induced/basal Luciferase activity ([3]; Testicle): 0.8 ± 0.06 Fold
- induced Luciferase activity ([3]; Testicle): 4.09 RLU/mg protein
- Fold (mean ± SEM), induced/basal Luciferase activity ([3]; Thyroid): 1.5 ± 0.07 Fold
- induced Luciferase activity ([3]; Thyroid): 0.176 RLU/mg protein
- Fold (mean ± SEM), induced/basal Luciferase activity ([3]; iBAT): 64.6 ± 8.1 Fold
- induced Luciferase activity ([3]; iBAT): 1.820 RLU/mg protein

- Luciferase mRNA level in the pituitary ([4]; T3-treatment, denominated with GAPDH): robustly increased
- luciferase activity in both tissues (liver and heart) ([6]; T3 administration): significant increase
Structure (SMILES): N[C@@H](Cc1cc(I)c(Oc2ccc(O)c(I)c2)c(I)c1)C(=O)O [T3, 3,5,3′-triiodothyronine]
- induction of luciferase mRNA in the pituitary ([4]; 1 μg/g bw T3 i.p., GAPDH housekeeping): ~50 fold
- reporter activity in the BAT and intestine (in vivo imaging) [5]: very intense increase
- reporter activity in the mandibular salivary gland (MSG) and skin of the tail and foot pads (in vivo imaging) [5]: up-regulated
- induction of Luciferase expression [7]: approximately 4 fold

- Luciferase activity in liver ([6]; i.p. 1.53 nM/g BW, after 24 hours, TRβ isoform dominant liver): significantly increased
Structure (SMILES): Cc1cc(OCC(=O)O)cc(C)c1Cc1ccc(O)c(Cc2ccccc2)c1 [GC-24]
- Luciferase activity in heart ([6]; i.p. 1.53 nM/g BW, after 24 hours, TRα isoform dominant heart): did not change; also recorded: no significant change
